What was measured:
Type in all cases: functional
MCF7 = assay: Cytotoxicity against human MCF7 cells assessed as growth at 100 uM after 48 hrs by SRB protein assay relative to control; conditions: MCF7, 48 h, read-out: Activity
NCI/ADR-RES = assay: Growth inhibition of human NCI/ADR-RES cells after 48 hrs by SRB protein assay; conditions: for TGI: read-out: Log TGI (converted)
NCI-H460 = assay: Cytotoxicity against human […] cells assessed as growth at 100 uM after 48 hrs by SRB protein assay relative to control; conditions: NCI-H460, 48 h, read-out: Activity
NCI-H226 = assay: Growth inhibition of human NCI-H226 cells after 48 hrs by SRB protein assay; conditions: NCI-H226, 48 h; for TGI: read-out: Log TGI (converted)
SF-268 = assay: Cytotoxicity against human SF268 cells assessed as growth at 100 uM after 48 hrs by SRB protein assay relative to control; conditions: SF-268, 48 h, read-out: Activity
U-251 = assay: Growth inhibition human U251 of cells after 48 hrs by SRB protein assay; conditions: U-251, 48 h; for TGI: read-out: Log TGI (converted)
HT-29 = assay: Growth inhibition of human HT29 cells after 48 hrs by SRB protein assay; conditions: HT-29, 48 h; for TGI: read-out: Log TGI (converted)
UO-31 = assay: Growth inhibition of human UO31 cells after 48 hrs by SRB protein assay; conditions: UO-31, 48 h; for TGI: read-out: Log TGI (converted)
HCT-116 = assay: Growth inhibition of human HCT116 cells after 48 hrs by SRB protein assay; conditions: HCT-116, 48 h; for TGI: read-out: Log TGI (converted)
M14 = assay: Growth inhibition of human M14 cells after 48 hrs by SRB protein assay; conditions: M14, 48 h; for TGI: read-out: Log TGI (converted)
K562 = assay: Growth inhibition of human K562 cells after 48 hrs by SRB protein assay; conditions: K562, 48 h; for TGI: read-out: Log TGI (converted)
IGROV-1 = assay: Growth inhibition of human IGROV1 cells after 48 hrs by SRB protein assay; conditions: IGROV-1, 48 h; for TGI: read-out: Log TGI (converted)
OVCAR-5 = assay: Growth inhibition of human OVCAR5 cells after 48 hrs by SRB protein assay; conditions: OVCAR-5, 48 h; for TGI: read-out: Log TGI (converted)
T47D = assay: Growth inhibition of human T47D cells after 48 hrs by SRB protein assay; conditions: for TGI: read-out: Log TGI (converted)
BT-549 = assay: Growth inhibition of human BT549 cells after 48 hrs by SRB protein assay; conditions: BT-549, 48 h; for TGI: read-out: Log TGI (converted)
CCRF-CEM = assay: Growth inhibition of human CCRF-CEM cells after 48 hrs by SRB protein assay; conditions: for TGI: read-out: Log TGI (converted)
SN12C = assay: Growth inhibition of human SN12C cells after 48 hrs by SRB protein assay; conditions: for TGI: read-out: Log TGI (converted)
TK-10 = assay: Growth inhibition of human TK10 cells after 48 hrs by SRB protein assay; conditions: TK-10, 48 h; for TGI: read-out: Log TGI (converted)
OVCAR-4 = assay: Growth inhibition of human OVCAR4 cells after 48 hrs by SRB protein assay; conditions: OVCAR-4, 48 h; for TGI: read-out: Log TGI (converted)
A498 = assay: Growth inhibition of human A498 cells after 48 hrs by SRB protein assay; conditions: A498, 48 h; for TGI: read-out: Log TGI (converted)

Structure (SMILES): O=C(Cc1csc2nc(-c3ccc(Br)cc3)cn12)N/N=C/c1ccccc1O
- growth at 100 µM (MCF7): 7%
- GI50 (NCI/ADR-RES): 2.51 µM
- TGI (NCI/ADR-RES): 6.76 µM
- growth at 100 µM (NCI-H460): 0%
- GI50 (NCI-H226): 1.95 µM
- TGI (NCI-H226): 7.76 µM
- growth at 100 µM (SF-268): 50%
- GI50 (U-251): 3.63 µM
- TGI (U-251): 15.1 µM
- GI50 (HT-29): 6.03 µM
- TGI (HT-29): 19.1 µM
- GI50 (UO-31): 7.08 µM
- TGI (UO-31): > 100 µM
- GI50 (HCT-116): 3.24 µM
- TGI (HCT-116): 12.3 µM
- GI50 (M14): 2.57 µM
- TGI (M14): 7.76 µM
- GI50 (K562): 0.0372 µM
- TGI (K562): 2.95 µM
- GI50 (IGROV-1): 1.05 µM
- TGI (IGROV-1): 11.5 µM
- GI50 (OVCAR-5): 5.5 µM
- TGI (OVCAR-5): 31.6 µM
- GI50 (T47D): 5.25 µM
- TGI (T47D): 23.4 µM
- GI50 (BT-549): 10 µM
- TGI (BT-549): 22.4 µM
- GI50 (CCRF-CEM): 1.82 µM
- TGI (CCRF-CEM): 8.32 µM
- GI50 (SN12C): 3.31 µM
- TGI (SN12C): 15.8 µM
- GI50 (TK-10): 2.04 µM
- TGI (TK-10): 8.71 µM

Structure (SMILES): COc1cccc(OC)c1/C=N/NC(=O)Cc1csc2nc(-c3ccc(Br)cc3)cn12
- growth at 100 µM (MCF7): 27%
- GI50 (OVCAR-4): 28.2 µM
- TGI (OVCAR-4): > 100 µM
- GI50 (NCI/ADR-RES): 12.9 µM
- TGI (NCI/ADR-RES): 35.5 µM
- growth at 100 µM (NCI-H460): 15%
- growth at 100 µM (SF-268): 82%
- GI50 (U-251): 13.8 µM
- TGI (U-251): 31.6 µM
- GI50 (HT-29): 16.2 µM
- TGI (HT-29): > 100 µM
- GI50 (UO-31): 60.3 µM
- TGI (UO-31): > 100 µM
- GI50 (HCT-116): 4.57 µM
- TGI (HCT-116): 15.8 µM
- GI50 (M14): 15.1 µM
- TGI (M14): 72.4 µM
- GI50 (K562): 2.95 µM
- TGI (K562): 6.92 µM
- GI50 (IGROV-1): 3.98 µM
- TGI (IGROV-1): 26.9 µM
- GI50 (OVCAR-5): 50.1 µM
- TGI (OVCAR-5): > 100 µM
- GI50 (T47D): 40.7 µM
- TGI (T47D): > 100 µM
- GI50 (BT-549): 12.9 µM
- TGI (BT-549): 33.9 µM
- GI50 (CCRF-CEM): 9.55 µM
- TGI (CCRF-CEM): > 100 µM
- GI50 (SN12C): 20.9 µM
- TGI (SN12C): 49 µM
- GI50 (TK-10): 16.2 µM
- TGI (TK-10): 51.3 µM

Structure (SMILES): O=C(Cc1csc2nc(-c3ccc(Br)cc3)cn12)N/N=C/c1ccc(Cl)cc1Cl
- growth at 100 µM (MCF7): 46%
- GI50 (OVCAR-4): 37.2 µM
- TGI (OVCAR-4): > 100 µM
- GI50 (NCI/ADR-RES): 17.4 µM
- TGI (NCI/ADR-RES): 52.5 µM
- growth at 100 µM (NCI-H460): 24%
- GI50 (NCI-H226): 31.6 µM
- TGI (NCI-H226): 91.2 µM
- GI50 (A498): 29.5 µM
- TGI (A498): 63.1 µM
- growth at 100 µM (SF-268): 94%
- GI50 (U-251): 20.4 µM
- TGI (U-251): 44.7 µM
- GI50 (HT-29): 40.7 µM
- TGI (HT-29): > 100 µM
- GI50 (UO-31): 72.4 µM
- TGI (UO-31): > 100 µM
- GI50 (HCT-116): 17 µM
- TGI (HCT-116): 37.2 µM
- GI50 (M14): 33.1 µM
- TGI (M14): > 100 µM
- GI50 (IGROV-1): 15.8 µM
- TGI (IGROV-1): 45.7 µM
- GI50 (OVCAR-5): 28.8 µM
- TGI (OVCAR-5): 67.6 µM
- GI50 (T47D): > 100 µM
- TGI (T47D): > 100 µM
- GI50 (BT-549): 25.7 µM
- TGI (BT-549): 77.6 µM
- GI50 (CCRF-CEM): 39.8 µM
- TGI (CCRF-CEM): > 100 µM
- GI50 (SN12C): 85.1 µM
- TGI (SN12C): > 100 µM

Structure (SMILES): O=C(Cc1csc2nc(-c3ccc(Br)cc3)cn12)N/N=C/c1ccccc1
- growth at 100 µM (MCF7): 57%
- GI50 (OVCAR-4): 46.8 µM
- TGI (OVCAR-4): > 100 µM
- GI50 (NCI/ADR-RES): 13.5 µM
- TGI (NCI/ADR-RES): 67.6 µM
- growth at 100 µM (NCI-H460): 12%
- growth at 100 µM (SF-268): 65%
- GI50 (U-251): 12.9 µM
- TGI (U-251): 32.4 µM
- GI50 (HT-29): 43.7 µM
- TGI (HT-29): > 100 µM
- GI50 (UO-31): 57.5 µM
- TGI (UO-31): > 100 µM
- GI50 (HCT-116): 9.33 µM
- TGI (HCT-116): 21.4 µM
- GI50 (M14): 20.9 µM
- TGI (M14): > 100 µM
- TGI (K562): 7.94 µM
- GI50 (IGROV-1): 11.2 µM
- TGI (IGROV-1): 32.4 µM
- GI50 (OVCAR-5): 30.9 µM
- TGI (OVCAR-5): > 100 µM
- GI50 (T47D): 37.2 µM
- TGI (T47D): > 100 µM
- GI50 (BT-549): 12.9 µM
- TGI (BT-549): 49 µM
- GI50 (CCRF-CEM): 17.4 µM
- TGI (CCRF-CEM): > 100 µM
- GI50 (SN12C): 13.2 µM
- TGI (SN12C): 39.8 µM
- GI50 (TK-10): 14.1 µM
- TGI (TK-10): 41.7 µM

Structure (SMILES): O=C(Cc1csc2nc(-c3ccc(Br)cc3)cn12)N/N=C/c1ccc(O)cc1
- growth at 100 µM (MCF7): 22%
- GI50 (OVCAR-4): > 100 µM
- TGI (OVCAR-4): > 100 µM
- GI50 (NCI/ADR-RES): 21.4 µM
- TGI (NCI/ADR-RES): 61.7 µM
- growth at 100 µM (NCI-H460): 11%
- growth at 100 µM (SF-268): 42%
- GI50 (U-251): 21.4 µM
- TGI (U-251): > 100 µM
- GI50 (HT-29): 50.1 µM
- TGI (HT-29): > 100 µM
- GI50 (UO-31): 26.3 µM
- TGI (UO-31): > 100 µM
- GI50 (HCT-116): 10.5 µM
- TGI (HCT-116): 24 µM
- GI50 (M14): 10.2 µM
- TGI (M14): 23.4 µM
- GI50 (K562): 1.82 µM
- TGI (K562): 7.08 µM
- GI50 (IGROV-1): 10.7 µM
- TGI (IGROV-1): 39.8 µM
- GI50 (OVCAR-5): 27.5 µM
- TGI (OVCAR-5): > 100 µM
- GI50 (T47D): 31.6 µM
- TGI (T47D): > 100 µM
- GI50 (BT-549): 13.5 µM
- TGI (BT-549): 56.2 µM
- GI50 (CCRF-CEM): 12.3 µM
- TGI (CCRF-CEM): 79.4 µM
- GI50 (SN12C): 15.5 µM
- TGI (SN12C): 43.7 µM
- GI50 (TK-10): 9.77 µM
- TGI (TK-10): 33.1 µM

Structure (SMILES): Nc1nc2[nH]cnc2c(=S)[nH]1 [THIOGUANINE]
- GI50 (OVCAR-4): 1.51 µM
- TGI (OVCAR-4): 100 µM
- GI50 (NCI-H226): 4.07 µM
- TGI (NCI-H226): 97.7 µM
- GI50 (A498): 6.76 µM
- TGI (A498): 95.5 µM
- GI50 (U-251): 4.9 µM
- TGI (U-251): 240 µM
- GI50 (HT-29): 1.15 µM
- TGI (HT-29): 105 µM
- GI50 (UO-31): 1.48 µM
- TGI (UO-31): 32.4 µM
- GI50 (HCT-116): 0.537 µM
- TGI (HCT-116): 16.2 µM
- GI50 (M14): 0.589 µM
- TGI (M14): 14.5 µM
- GI50 (K562): 0.407 µM
- TGI (K562): 70.8 µM
- GI50 (IGROV-1): 4.79 µM
- TGI (IGROV-1): 145 µM
- GI50 (OVCAR-5): 0.661 µM
- TGI (OVCAR-5): 47.9 µM
- GI50 (T47D): 2.04 µM
- TGI (T47D): 107 µM
- GI50 (BT-549): 3.63 µM
- TGI (BT-549): 162 µM
- GI50 (CCRF-CEM): 0.155 µM
- TGI (CCRF-CEM): 25.7 µM
- GI50 (SN12C): 1.26 µM
- TGI (SN12C): 174 µM
- GI50 (TK-10): 1.05 µM
- TGI (TK-10): 79.4 µM
